A short description of series [1]: Ligand facilitated Fe(III) efflux from liposomes. It is filed as biochemical. As to conditions: efflux rate k at 10 μM ligand concentration; ferrozine absorbance 562 nm, 120 min kinetic read. Also noted: unit not given here. In outline: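 POPC/cholesterol liposomes loaded with Fe(III) citrate in MES/Tris pH 7.0, diluted to 1 mM phosphorus in ascorbate buffer with 1 mM ferrozine outside. Ligand at 1.25–40 µM; absorbance at 562 nm read every 60 s for 120 min. Efflux rate k fitted by single-phase association, averaged over triplicates, compared at 10 µM.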

A short description of series [2]: Human liver microsomal stability assay. Format: in vitro ADME. The following applies: human liver microsomes. The text has this:
(§1) Further examples of useful assays include metabolic stability assays, such as but not limited to e.g., liver microsomal clearance assays which provide measurement such as, but not limited to e.g., liver microsomal clearance half-life (t1/2), liver microsomal intrinsic clearance (CLint), and the like. Such measurements are useful in assessing various characteristics of a subject compound, such as e.g., the availability of an intact compound to provide a pharmacological effect. A compound having a longer microsomal clearance half-life (t1/2), e.g., than a reference compound, will provide better exposure of the intact compound and greater availability to produce the relevant pharmacological effect. A compound having a less microsomal clearance, e.g., as measured by liver microsomal intrinsic clearance (CLint), will similarly result in greater exposure of the intact compound available for an increase in the relevant pharmacological effect, e.g., as compared to that of a reference compound with a higher liver microsomal intrinsic clearance (CLint). Other useful assays include in vitro hepatocyte metabolic stability assays.
(§2) Such assessments included human and mouse liver microsomal stability assays as well as 6-hour mouse PK studies.

Series [3] can be described thus: Mouse liver microsomal stability assay. Format: in vitro ADME. The following applies: mouse liver microsomes.
Excerpt: as §1, §2
Background: Liver microsomes are a subcellular fraction often used to study metabolism.

The structures appear in SMILES notation.

The record followed here is patent publication US20230406803A1, “TROPOLONE DERIVATIVES AND TAUTOMERS THEREOF FOR IRON REGULATION IN ANIMALS” (Kinesid Therapeutics, Inc, priority 2020, published 2023).

For the compound `CC(C)c1cccc(=O)c(O)c1` [hinokitiol, reference compound], the “Liposome Fe transport kefflux at 10 μM” value in series [1] was found to be 7.77. In addition, the microsomal CLint is 120 µL/min/mg in series [2] (read-out: Human CLint) and 46.7 µL/min/mg in series [3] (read-out: Mouse CLint). The results for the half-life in series [2] (read-out: Human t1/2) and in series [3] (read-out: Mouse t1/2) were 11.6 min and 29.7 min, respectively.
